Data published in patent US12091425B2 (AMGEN INC., priority 2016, dated 2024).

Experiments:
[1] = target: T1, Mcl-1/Bim interaction, recombinant human Mcl-1 (171-327) (Homo sapiens, UniProt Q07820); experiment: Cell free Mcl-1: Bim Affinity Assay (Mcl-1 HTRF); assay type: binding; settings: TR-FRET, 0.1 nM Mcl-1 (171-327), 0.05 nM biotin-Bim (51-76)
T1 construct: made in house
How it was run: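 Compounds were mixed with the protein and a biotinylated Bim peptide spanning human residues 51-76. Plates were left overnight, then TR-FRET signal was measured. A four-parameter sigmoidal model applied to duplicate competition data gave IC50.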

[2] = tested on: OPM-2 human multiple myeloma cell line; experiment: Cell Viability Assay (OPM-2 10 FBS); assay type: cell-based; settings: Homo sapiens, OPM-2, 16 h, OPM-2 cells, 16 h, CellTiter-Glo
How it was run: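 Plated at 3000 cells/well in 10% FBS complete medium, the cells received a serial compound dilution series and incubated 16 h at 37 °C with 5% CO2. CellTiter-Glo was then added; IC50 values were fitted with a logistic 4-parameter model.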

T1 sequence (Q07820 171-327): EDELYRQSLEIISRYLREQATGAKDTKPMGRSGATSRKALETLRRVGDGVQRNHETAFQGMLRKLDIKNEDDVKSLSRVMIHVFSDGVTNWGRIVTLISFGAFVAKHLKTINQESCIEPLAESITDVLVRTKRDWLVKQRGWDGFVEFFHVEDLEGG

C[C@@H]1C/C=C/[C@H](O)[C@@H]2CC[C@H]2CN2C[C@@]3(CCCc4cc(Cl)ccc43)COc3ccc(cc32)C(=O)NS(=O)(=O)N1 [Example 71, (1S,3′R,6′R,7′S,8′E,11R)-6-chloro-7′-hydroxy-11′-methyl-3,4-dihydro-2H,15′H-spiro[naphthalene-1,22′-[20]oxa[13]thia[1,12,14]triazatetracyclo[14.7.2.0^3,6.0^19,24]pentacosa[8,16,18,24]tetraen]-15′-one 13′,13′-dioxide] gave an IC50 [1] of 2.62 nM and an IC50 [2] of 3160 nM.

Work on C[C@H]1C/C=C/[C@H](O)[C@@H]2CC[C@H]2CN2C[C@@]3(CCCc4cc(Cl)ccc43)COc3ccc(cc32)C(=O)NS(=O)(=O)N1CCN(C)C [Example 76, (1S,3′R,6′R,7′S,8′E,11′S)-6-chloro-12′-(2-(dimethylamino)ethyl)-7′-hydroxy-11′-methyl-3,4-dihydro-2H,15′H-spiro[naphthalene-1,22′-[20]oxa[13]thia[1,12,14]triazatetracyclo[14.7.2.0^3,6.0^19,24]pentacosa[8,16,18,24]tetraen]-15′-one 13′,13′-dioxide] yielded an IC50 [1] of 0.405 nM and an IC50 [2] of 146 nM.

With CO[C@H]1C[C@@H](N2[C@@H](C)C/C=C/[C@H](O)[C@@H]3CC[C@H]3CN3C[C@@]4(CCCc5cc(Cl)ccc54)COc4ccc(cc43)C(=O)NS2(=O)=O)C1 [Example 77, (1S,3′R,6′R,7′S,8′E,11′S)-6-chloro-7′-hydroxy-12′-(cis-3-methoxycyclobutyl)-11′-methyl-3,4-dihydro-2H,15′H-spiro[naphthalene-1,22′-[20]oxa[13]thia[1,12,14]triazatetracyclo[14.7.2.0^3,6.0^19,24]pentacosa[8,16,18,24]tetraen]-15′-one 13′,13′-dioxide] the IC50 [1] was 0.593 nM and the IC50 [2] was 442 nM.

CO[C@H]1C[C@@H](N2[C@@H](C)C/C=C\[C@H](O)[C@@H]3CC[C@H]3CN3C[C@@]4(CCCc5cc(Cl)ccc54)COc4ccc(cc43)C(=O)NS2(=O)=O)C1 [Example 78, (1S,3′R,6′R,7′S,8′Z,11′S)-6-chloro-7′-hydroxy-12′-(cis-3-methoxycyclobutyl)-11′-methyl-3,4-dihydro-2H,15′H-spiro[naphthalene-1,22′-[20]oxa[13]thia[1,12,14]triazatetracyclo[14.7.2.0^3,6.0^19,24]pentacosa[8,16,18,24]tetraen]-15′-one 13′,13′-dioxide] showed an IC50 [1] of 1.45 nM and an IC50 [2] of 587 nM.

Work on COC1CC(N2[C@H](C)C/C=C/[C@H](O)[C@@H]3CC[C@H]3CN3C[C@@]4(CCCc5cc(Cl)ccc54)COc4ccc(cc43)C(=O)NS2(=O)=O)C1 (stereo partly drawn) [Example 79, (1S,3′R,6′R,7′S,8′E,11R)-6-chloro-7′-hydroxy-12′-(cis-3-methoxycyclobutyl)-11′-methyl-3,4-dihydro-2H,15′H-spiro[naphthalene-1,22′-[20]oxa[13]thia[1,12,14]triazatetracyclo[14.7.2.0^3,6.0^19,24]pentacosa[8,16,18,24]tetraen]-15′-one 13′,13′-dioxide] yielded an IC50 [1] of 4.18 nM and an IC50 [2] of 3620 nM.

Work on COCCO[C@H]1/C=C/C[C@H](C)N(Cc2ccc(OC)cc2)S(=O)(=O)NC(=O)c2ccc3c(c2)N(C[C@@H]2CC[C@H]21)C[C@@]1(CCCc2cc(Cl)ccc21)CO3 [Example 82, (1S,3′R,6′R,7′S,8′E,11′S)-6-chloro-12′-(4-methoxybenzyl)-7′-(2-methoxyethoxy)-11′-methyl-3,4-dihydro-2H,15′H-spiro[naphthalene-1,22′-[20]oxa[13]thia[1,12,14]triazatetracyclo[14.7.2.0^3,6.0^19,24]pentacosa[8,16,18,24]tetraen]-15′-one 13′,13′-dioxide] yielded an IC50 [1] of 7.8 nM and an IC50 [2] of 2920 nM.

For C[C@H]1C/C=C/[C@H](O)[C@@H]2CC[C@H]2CN2C[C@@]3(CCCc4cc(Cl)ccc43)COc3ccc(cc32)C(=O)NS(=O)(=O)N1C [Example 83, (1S,3′R,6′R,7′S,8′E,11′S)-6-chloro-7′-hydroxy-11′,12′-dimethyl-3,4-dihydro-2H,15′H-spiro[naphthalene-1,22′-[20]oxa[13]thia[1,12,14]triazatetracyclo[14.7.2.0^3,6.0^19,24]pentacosa[8,16,18,24]tetraen]-15′-one 13′,13′-dioxide], the IC50 [1] was 0.419 nM and the IC50 [2] was 487 nM.

In the case of CCN1[C@H](C)CCC[C@H](O)[C@@H]2CC[C@H]2CN2C[C@@]3(CCCc4cc(Cl)ccc43)COc3ccc(cc32)C(=O)NS1(=O)=O [Example 84, (1S,3′R,6′R,7′S,11R)-6-chloro-12′-ethyl-7′-hydroxy-11′-methyl-3,4-dihydro-2H,15′H-spiro[naphthalene-1,22′-[20]oxa[13]thia[1,12,14]triazatetracyclo[14.7.2.0^3,6.0^19,24]pentacosa[16,18,24]trien]-15′-one 13′,13′-dioxide], the IC50 [1] is reported as 13.2 nM and the IC50 [2] is reported as 5900 nM.

Work on CCN1[C@@H](C)CCC[C@H](O)[C@@H]2CC[C@H]2CN2C[C@@]3(CCCc4cc(Cl)ccc43)COc3ccc(cc32)C(=O)NS1(=O)=O [Example 85, (1S,3′R,6′R,7′S,11′S)-6-chloro-12′-ethyl-7′-hydroxy-11′-methyl-3,4-dihydro-2H,15′H-spiro[naphthalene-1,22′-[20]oxa[13]thia[1,12,14]triazatetracyclo[14.7.2.0^3,6.0^19,24]pentacosa[16,18,24]trien]-15′-one 13′,13′-dioxide] yielded an IC50 [1] of 1.88 nM and an IC50 [2] of 1910 nM.

C=CCN1CCCC[C@H](O)[C@@H]2CC[C@H]2CN2C[C@@]3(CCCc4cc(Cl)ccc43)COc3ccc(cc32)C(=O)NS1(=O)=O [Example 87, (1S,3′R,6′R,7′S)-6-chloro-7′-hydroxy-12′-(2-propen-1-yl)-3,4-dihydro-2H,15′H-spiro[naphthalene-1,22′-[20]oxa[13]thia[1,12,14]triazatetracyclo[14.7.2.0^3,6.0^19,24]pentacosa[16,18,24]trien]-15′-one 13′,13′-dioxide] was tested, and the IC50 [1] was 3.31 nM and the IC50 [2] was 3540 nM.

In the case of CCN1CC/C=C/[C@H](OCc2cscn2)[C@@H]2CC[C@H]2CN2C[C@@]3(CCCc4cc(Cl)ccc43)COc3ccc(cc32)C(=O)NS1(=O)=O [Example 88, (1S,3′R,6′R,7′S,8′E)-6-chloro-12′-ethyl-7′-(1,3-thiazol-4-ylmethoxy)-3,4-dihydro-2H,15′H-spiro[naphthalene-1,22′-[20]oxa[13]thia[1,12,14]triazatetracyclo[14.7.2.0^3,6.0^19,24]pentacosa[8,16,18,24]tetraen]-15′-one 13′,13′-dioxide], the IC50 [1] is reported as 1.71 nM and the IC50 [2] is reported as 1040 nM.

CCN1CC/C=C/[C@H](OCC(=O)N2CCCC2)[C@@H]2CC[C@H]2CN2C[C@@]3(CCCc4cc(Cl)ccc43)COc3ccc(cc32)C(=O)NS1(=O)=O [Example 89, (1S,3′R,6′R,7′S,8′E)-6-chloro-12′-ethyl-7′-(2-oxo-2-(1-pyrrolidinyl)ethoxy)-3,4-dihydro-2H,15′H-spiro[naphthalene-1,22′-[20]oxa[13]thia[1,12,14]triazatetracyclo[14.7.2.0^3,6.0^19,24]pentacosa[8,16,18,24]tetraen]-15′-one 13′,13′-dioxide] was tested, and the IC50 [1] was 0.666 nM and the IC50 [2] was 798 nM.

Compound COCCO[C@H]1/C=C/C[C@@H]2CC[C@H]2S(=O)(=O)NC(=O)c2ccc3c(c2)N(C[C@@H]2CC[C@H]21)C[C@@]1(CCCc2cc(Cl)ccc21)CO3 [Example 93, (1S,3′R,6′R,7′S,8′E,11′S,14′R)-6-chloro-7′-(2-methoxyethoxy)-3,4-dihydro-2H,17′H-spiro[naphthalene-1,24′-[22]oxa[15]thia[1,16]diazapentacyclo[16.7.2.0^3,6.0^11,14.0^21,26]heptacosa[8,18,20,26]tetraen]-17′-one 15′,15′-dioxide] has an IC50 [1] of 0.494 nM and an IC50 [2] of 402 nM.

For Cn1cnc(CO[C@H]2/C=C/C[C@H]3CC[C@@H]3S(=O)(=O)NC(=O)c3ccc4c(c3)N(C[C@@H]3CC[C@H]32)C[C@@]2(CCCc3cc(Cl)ccc32)CO4)n1 [Example 94, (1S,3′R,6′R,7′S,8′E,11′R,14′S)-6-chloro-7′-((1-methyl-1H-1,2,4-triazol-3-yl)methoxy)-3,4-dihydro-2H,17′H-spiro[naphthalene-1,24′-[22]oxa[15]thia[1,16]diazapentacyclo[16.7.2.0^3,6.0^11,14.0^21,26]heptacosa[8,18,20,26]tetraen]-17′-one 15′,15′-dioxide], the IC50 [1] was 0.467 nM and the IC50 [2] was 432 nM.

In the case of CO[C@H]1/C=C/C[C@H]2CC[C@@H]2S(=O)(=O)NC(=O)c2ccc3c(c2)N(C[C@@H]2CC[C@H]21)C[C@@]1(CCCc2cc(Cl)ccc21)CO3 [Example 95, (1S,3′R,6′R,7′S,8′E,11′R,14′S)-6-chloro-7′-methoxy-3,4-dihydro-2H,17′H-spiro[naphthalene-1,24′-[22]oxa[15]thia[1,16]diazapentacyclo[16.7.2.0^3,6.0^11,14.0^21,26]heptacosa[8,18,20,26]tetraen]-17′-one 15′,15′-dioxide], the IC50 [1] is reported as 0.46 nM and the IC50 [2] is reported as 572 nM.

Compound O=C1NS(=O)(=O)[C@H]2C[C@@H](CC[C@H](O)[C@@H]3CC[C@H]3CN3C[C@@]4(CCCc5cc(Cl)ccc54)COc4ccc1cc43)C2 [Example 101, (1S,3′R,6′R,7′S,10′S,12′S)-6-chloro-7′-hydroxy-3,4-dihydro-2H,15′H-spiro[naphthalene-1,22′-[20]oxa[13]thia[1,14]diazapentacyclo[14.7.2.1^10,120^3,6.0^19,24]hexacosa[16,18,24]trien]-15′-one 13′,13′-dioxide] has an IC50 [1] of 2.58 nM and an IC50 [2] of 13000 nM.

In the case of O=C1NS(=O)(=O)[C@H]2C[C@H](/C=C/[C@H](O)[C@@H]3CC[C@H]3CN3C[C@@]4(CCCc5cc(Cl)ccc54)COc4ccc1cc43)C2 [Example 102, (1S,3′R,6′R,7′S,8′E,10′R,12′S)-6-chloro-7′-hydroxy-3,4-dihydro-2H,15′H-spiro[naphthalene-1,22′-[20]oxa[13]thia[1,14]diazapentacyclo[14.7.2.1^10,12.0^3,6.0^19,24]hexacosa[8,16,18,24]tetraen]-15′-one 13′,13′-dioxide], the IC50 [1] is reported as 2.73 nM and the IC50 [2] is reported as 18600 nM.
